Measured values published in ChEMBL document CHEMBL3885881, “DrugMatrix”.

Species on record: Rattus norvegicus
Experiment: DrugMatrix - Regimen: Daily Repeat
Type: toxicity, organism-based, Sprague-Dawley
Design: regimen Daily Repeat, gender Male, age 6-8 weeks
Conditions: in vivo, po, route oral GAVAGE, vehicle .5 % CMC; for ABSOLUTE BASOPHIL / ABSOLUTE EOSINOPHIL / ABSOLUTE LYMPHOCYTE / ABSOLUTE MONOCYTE / ABSOLUTE SEGMENTED NEUTROPHIL / BASOPHIL / EOSINOPHIL / ERYTHROCYTE COUNT / HEMATOCRIT / HEMOGLOBIN / LEUKOCYTE COUNT / LYMPHOCYTE / MEAN CORPUSCULAR HEMOGLOBIN / MEAN CORPUSCULAR HEMOGLOBIN CONCENTRATION / MEAN CORPUSCULAR VOLUME / MONOCYTE / NEUTROPHIL / NUCLEATED RED BLOOD CELLS / PLATELET COUNT: tissue Blood; for ALANINE AMINOTRANSFERASE / ALBUMIN / ALKALINE PHOSPHATASE / ASPARTATE AMINOTRANSFERASE / BLOOD UREA NITROGEN / CARBON DIOXIDE / CHLORIDE / CHOLESTEROL / CREATINE PHOSPHOKINASE / CREATININE / GLUCOSE / LACTATE DEHYDROGENASE / LIPASE / PHOSPHORUS / POTASSIUM / SODIUM / TOTAL BILIRUBIN / TOTAL PROTEIN / URIC ACID: tissue Plasma
[1] = 16 mg/kg, 120 h, dose level Low, time 5 day
[2] = 94 mg/kg, 72 h, dose level High, time 3 day
[3] = 94 mg/kg, 120 h, dose level High, time 5 day

With `CCOC(=O)OC(C)OC1=C(C(=O)Nc2ccccn2)N(C)S(=O)(=O)c2ccccc21` (centres undefined) [AMPIROXICAM] the “ABSOLUTE BASOPHIL” value [1] was 0 CELLS/uL, the “ABSOLUTE EOSINOPHIL” value [1] was 0 CELLS/uL and the “ABSOLUTE LYMPHOCYTE” value [1] was 8819 CELLS/uL. The “ABSOLUTE MONOCYTE” value [1] was 212 CELLS/uL, the “ABSOLUTE SEGMENTED NEUTROPHIL” value [1] was 1469 CELLS/uL and the BASOPHIL [1] was 0%. For the same compound, the EOSINOPHIL [1] was 0%, the “ERYTHROCYTE COUNT” value [1] was 5.59 x10E6/uL and the HEMATOCRIT [1] was 33.9%. The HEMOGLOBIN [1] was 12.8 G/DL, the “LEUKOCYTE COUNT” value [1] was 10.5 x10E3/uL and the LYMPHOCYTE [1] was 84%. The “MEAN CORPUSCULAR HEMOGLOBIN” value [1] was 22.9 pg, the “MEAN CORPUSCULAR HEMOGLOBIN CONCENTRATION” value [1] was 37.77 G/DL and the “MEAN CORPUSCULAR VOLUME” value [1] was 60.67 fL. For the same compound, the MONOCYTE [1] was 2.33%, the NEUTROPHIL [1] was 13.67% and the “NUCLEATED RED BLOOD CELLS” value [1] was 0 /100WBC. For the same compound, the “PLATELET COUNT” value [1] was 1100 x10E3/uL, the “ALANINE AMINOTRANSFERASE” value [1] was 50.33 u/L and the ALBUMIN [1] was 4.2 G/DL. The “ALKALINE PHOSPHATASE” value [1] was 430.67 u/L, the “ASPARTATE AMINOTRANSFERASE” value [1] was 70.67 u/L and the “BLOOD UREA NITROGEN” value [1] was 13.67 mg/dL. The “CARBON DIOXIDE” value [1] was 26 mmol/L, the CHLORIDE [1] was 101.67 MEQ/L and the CHOLESTEROL [1] was 67.67 mg/dL. The “CREATINE PHOSPHOKINASE” value [1] was 214.67 u/L, the CREATININE [1] was 0.26 mg/dL and the GLUCOSE [1] was 161.33 mg/dL. For the same compound, the “LACTATE DEHYDROGENASE” value [1] was 71.67 u/L, the LIPASE [1] was 8.67 u/L and the PHOSPHORUS [1] was 11.93 mg/dL. For the same compound, the POTASSIUM [1] was 6.36 MEQ/L, the SODIUM [1] was 144.83 MEQ/L and the “TOTAL BILIRUBIN” value [1] was 0.17 mg/dL. The “TOTAL PROTEIN” value [1] was 6.1 G/DL, the “URIC ACID” value [1] was 1.73 mg/dL and the “ABSOLUTE BASOPHIL” value [2] was 0 CELLS/uL. For the same compound, the “ABSOLUTE EOSINOPHIL” value [2] was 73 CELLS/uL, the “ABSOLUTE LYMPHOCYTE” value [2] was 14276.67 CELLS/uL and the “ABSOLUTE MONOCYTE” value [2] was 831.33 CELLS/uL. For the same compound, the “ABSOLUTE SEGMENTED NEUTROPHIL” value [2] was 1685.67 CELLS/uL, the BASOPHIL [2] was 0% and the EOSINOPHIL [2] was 0.33%. For the same compound, the “ERYTHROCYTE COUNT” value [2] was 4.7 x10E6/uL, the HEMATOCRIT [2] was 28.03% and the HEMOGLOBIN [2] was 11.03 G/DL. The “LEUKOCYTE COUNT” value [2] was 16.87 x10E3/uL, the LYMPHOCYTE [2] was 85.33% and the “MEAN CORPUSCULAR HEMOGLOBIN” value [2] was 23.5 pg. For the same compound, the “MEAN CORPUSCULAR HEMOGLOBIN CONCENTRATION” value [2] was 39.33 G/DL, the “MEAN CORPUSCULAR VOLUME” value [2] was 59.67 fL and the MONOCYTE [2] was 5%. The NEUTROPHIL [2] was 9.33%, the “NUCLEATED RED BLOOD CELLS” value [2] was 0 /100WBC and the “PLATELET COUNT” value [2] was 907 x10E3/uL. The “ALANINE AMINOTRANSFERASE” value [2] was 30 u/L, the ALBUMIN [2] was 2.33 G/DL and the “ALKALINE PHOSPHATASE” value [2] was 163.67 u/L. For the same compound, the “ASPARTATE AMINOTRANSFERASE” value [2] was 53 u/L, the “BLOOD UREA NITROGEN” value [2] was 10 mg/dL and the “CARBON DIOXIDE” value [2] was 27.67 mmol/L. For the same compound, the CHLORIDE [2] was 103.67 MEQ/L, the CHOLESTEROL [2] was 107.67 mg/dL and the “CREATINE PHOSPHOKINASE” value [2] was 224.33 u/L. The CREATININE [2] was 0.21 mg/dL, the GLUCOSE [2] was 142.33 mg/dL and the “LACTATE DEHYDROGENASE” value [2] was 128 u/L. The LIPASE [2] was 11.33 u/L, the PHOSPHORUS [2] was 11.57 mg/dL and the POTASSIUM [2] was 6.23 MEQ/L. For the same compound, the SODIUM [2] was 144.1 MEQ/L, the “TOTAL BILIRUBIN” value [2] was 0.13 mg/dL and the “TOTAL PROTEIN” value [2] was 4.43 G/DL. For the same compound, the “URIC ACID” value [2] was 1.57 mg/dL, the “ABSOLUTE BASOPHIL” value [3] was 0 CELLS/uL and the “ABSOLUTE EOSINOPHIL” value [3] was 0 CELLS/uL. The “ABSOLUTE LYMPHOCYTE” value [3] was 17904 CELLS/uL, the “ABSOLUTE MONOCYTE” value [3] was 540 CELLS/uL and the “ABSOLUTE SEGMENTED NEUTROPHIL” value [3] was 3956 CELLS/uL. For the same compound, the BASOPHIL [3] was 0%, the EOSINOPHIL [3] was 0% and the “ERYTHROCYTE COUNT” value [3] was 3.63 x10E6/uL. The HEMATOCRIT [3] was 21.55%, the HEMOGLOBIN [3] was 8.6 G/DL and the “LEUKOCYTE COUNT” value [3] was 22.4 x10E3/uL. For the same compound, the LYMPHOCYTE [3] was 81%, the “MEAN CORPUSCULAR HEMOGLOBIN” value [3] was 23.8 pg and the “MEAN CORPUSCULAR HEMOGLOBIN CONCENTRATION” value [3] was 40.05 G/DL. The “MEAN CORPUSCULAR VOLUME” value [3] was 59.25 fL, the MONOCYTE [3] was 2.5% and the NEUTROPHIL [3] was 16.5%. For the same compound, the “NUCLEATED RED BLOOD CELLS” value [3] was 2.5 /100WBC, the “PLATELET COUNT” value [3] was 1838 x10E3/uL and the “ALANINE AMINOTRANSFERASE” value [3] was 30 u/L. The ALBUMIN [3] was 2.85 G/DL, the “ALKALINE PHOSPHATASE” value [3] was 259 u/L and the “ASPARTATE AMINOTRANSFERASE” value [3] was 60.5 u/L. The “BLOOD UREA NITROGEN” value [3] was 13 mg/dL, the “CARBON DIOXIDE” value [3] was 23.5 mmol/L and the CHLORIDE [3] was 104 MEQ/L. The CHOLESTEROL [3] was 67 mg/dL, the “CREATINE PHOSPHOKINASE” value [3] was 290 u/L and the CREATININE [3] was 0.21 mg/dL. The GLUCOSE [3] was 136.5 mg/dL, the “LACTATE DEHYDROGENASE” value [3] was 87 u/L and the LIPASE [3] was 9.5 u/L. It also gave a PHOSPHORUS [3] of 11.1 mg/dL, a POTASSIUM [3] of 6.99 MEQ/L and an SODIUM [3] of 141.6 MEQ/L. For the same compound, the “TOTAL BILIRUBIN” value [3] was 0.1 mg/dL, the “TOTAL PROTEIN” value [3] was 4.95 G/DL and the “URIC ACID” value [3] was 1.75 mg/dL.
